Results as given in publication PMC9925432, “Thioquinoline derivatives conjugated to thiosemicarbazide as potent tyrosinase inhibitors with anti-melanogenesis properties” (Scientific Reports, 2023).
Like-named read-outs stand apart in the source and are kept apart here.

Tests used:
mushroom tyrosinase = settings: cited from earlier work
[1] = target: T1, Mushroom tyrosinase (EC 1.14.18.1) (Agaricus bisporus, UniProt C7FF04); assay: Tyrosinase inhibitory assay (colorimetric, diphenolase activity, L-Dopa); type: biochemical; settings: for IC50: L-Dopa as substrate, means ± RSD of 3 independent experiments
T1 construct: purchased Sigma Chemical Co
Procedure: Mushroom tyrosinase (EC 1.14.18.1) (Sigma Chemical Co.) was assayed using L-Dopa as the substrate as reported in our previous studies with some modifications[30]–[32]. The enzyme diphenolase activity was monitored spectrophotometrically by observing dopachrome formation at 490 nm. All the test samples were first dissolved in DMSO at 10 mM and diluted to the required concentrations. Initially, in a 96-well microplate, 10 µl of test samples were added to 160 µl of 50 mM phosphate buffer (pH = 6.8) and then 10 µl tyrosinase (500 U mL^−1) was added. After the mixture was pre-incubated at 28 °C for 20 min, 20 µl of L-Dopa solution (7 mM) was added to the mixture. After 10 min incubation absorbance of samples was measured. DMSO without test compounds was used as the control, and kojic acid was used as a positive control. Each assay was conducted as three separate replicates. The inhibitory activity of the tested compounds was expressed as the concentration that inhibited 50% of the enzyme activity (IC50). […]

[2] = MTT assay for cell viability, HEK 293; type: cell-based; settings: human, HEK 293 cells, 48 h, MTT, mean ± S.E.M.; for viability at 48 h, 16 µM: HEK 293, 16 µM; for viability at 48 h, 32 µM: HEK 293, 32 µM; for viability at 48 h, 64 µM: HEK 293, 64 µM
Procedure: (§1) The cytotoxic activity of all derivatives against the HEK 293 cell line and 10g against A375 (at a density of 5 × 10^3 cells/ml) using 3-(4,5-dimethylthiazol-2-yl)-2,5- diphenyltetrazolium bromide (MTT) assay were performed. Cells were grown at 37 °C in the presence of CO2 5% in DMEM (Gibco BRL, Grand Island, NY, USA), 10% fetal bovine serum (FBS, Gibco BRL), and penicillin/streptomycin (100 IU/mL and 100 µg/mL, respectively). Next cells were seeded in a 96-well plate and incubated at 37 ^∘C with derivatives at different concentrations for 48 h. Following the treatment, cells were incubated with MTT (0.5 mg/ml) at 37 ^∘C for 3 h. The MTT-containing medium was then removed, and 100 μl of DMSO was added to each well, mixed thoroughly with a 10 min shake to dissolve formazan crystals. The absorbance of each well was measured at 540 nm[33].

HEK 293 cell line = assay: MTT assay for cell viability, HEK 293; type: cell-based; settings: for Cell viability (%): HEK 293, 32 µM, 48 h, MTT, mean ± S.E.M., 32 µM
Procedure: as §1

T1 sequence (C7FF04 1-392 limits assumed): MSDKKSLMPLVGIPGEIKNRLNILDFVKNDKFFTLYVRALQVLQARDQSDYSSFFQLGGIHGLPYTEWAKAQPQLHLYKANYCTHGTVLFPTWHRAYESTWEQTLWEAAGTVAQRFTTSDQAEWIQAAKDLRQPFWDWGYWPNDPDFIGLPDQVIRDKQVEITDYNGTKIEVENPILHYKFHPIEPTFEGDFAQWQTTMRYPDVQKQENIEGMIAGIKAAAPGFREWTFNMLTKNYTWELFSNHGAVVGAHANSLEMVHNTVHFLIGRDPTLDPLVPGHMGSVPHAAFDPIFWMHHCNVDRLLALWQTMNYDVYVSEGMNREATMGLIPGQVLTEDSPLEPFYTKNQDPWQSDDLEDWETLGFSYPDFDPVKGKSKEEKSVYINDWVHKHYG

IC50 [1]	melting point	Compound	IC50 (mushroom tyrosinase; tyrosinase)	viability at 48 h, 16 µM [2]	viability at 48 h, 32 µM [2]	viability at 48 h, 64 µM [2]	Cell viability (%) (HEK 293 cell line)	IC50 (mushroom tyrosinase; L-Dopa as substrate)	IC50 (mushroom tyrosinase; L-tyrosine as substrate)	fold improvement in the potency compared to 10a ([1]; ratio of tyrosinase IC50 values)	IC50 (HEK 293 cell line; Homo sapiens, HEK293, HEK 293, MTT, read-out: IC50 (positive control))
–	–	OC[C@H]1O[C@@H](Oc2ccc(O)cc2)[C@H](O)[C@@H](O)[C@@H]1O [arbutin]	180 µM	–	–	–	–	–	–	–	–
39.8 µM	180 to 182 °C	NC(=S)N/N=C/c1cc2ccccc2nc1SCC(=O)Nc1ccc([N+](=O)[O-])cc1 [Compound 10f, (E)-2-((3-((2-carbamothioylhydrazineylidene)methyl)quinolin-2-yl)thio)-N-(4-nitrophenyl)acetamide]	–	97.67 ± 0.55%	> 85%	80 ± 2.05%	88.12 ± 4.05%	–	–	–	–
–	–	NC(=S)N/N=C/c1ccc(OCc2cn(CC(=O)NCc3ccccc3)nn2)cc1 [G]	–	–	–	–	–	0.17 µM	0.11 µM	–	–
53.3 µM	186 to 188 °C	NC(=S)N/N=C/c1cc2ccccc2nc1SCC(=O)NCc1ccc(F)cc1 [Compound 10m, (E)-2-((3-((2-carbamothioylhydrazono)methyl)quinolin-2-yl)thio)-N-(4-fluorobenzyl)acetamide]	–	95.5 ± 2.97%	> 85%	71.2 ± 5.42%	86.44 ± 1.17%	–	–	–	–
78.5 µM	180 to 182 °C	Cc1ccc(CNC(=O)CSc2nc3ccccc3cc2/C=N/NC(N)=S)cc1 [Compound 10l, (E)-2-((3-((2-carbamothioylhydrazineylidene)methyl)quinolin-2-yl)thio)-N-(4-methylbenzyl)acetamide]	–	75.1 ± 1.99%	62.6 ± 1.58%	50 ± 0.88%	–	–	–	–	–
85.3 µM	178 to 180 °C	CCc1ccc(NC(=O)CSc2nc3ccccc3cc2/C=N/NC(N)=S)cc1 [Compound 10c, (E)-2-((3-((2-carbamothioylhydrazono)methyl)quinolin-2-yl)thio)-N-(4-ethylphenyl)acetamide]	–	82.55 ± 0.5%	69.3 ± 1.81%	58.3 ± 1.03%	–	–	–	–	–
155 µM	180 to 182 °C	NC(=S)N/N=C/c1cc2ccccc2nc1SCC(=O)Nc1ccccc1 [Compound 10a, (E)-2-((3-((2-carbamothioylhydrazineylidene)methyl)quinolin-2-yl)thio)-N-phenylacetamide]	–	90.19 ± 0.89%	72.2 ± 2.13%	65.8 ± 1.99%	–	–	–	–	–
≥ 200 µM	–	NC(=S)N/N=C/c1cc2ccccc2nc1SCC(=O)Nc1ccccc1Br [Compound 10j, (E)-N-(2-bromophenyl)-2-((3-((2-carbamothioylhydrazono)methyl)quinolin-2-yl)thio)acetamide]	–	91.2 ± 4.35%	> 85%	79.9 ± 3.16%	88.65 ± 2.31%	–	–	–	–
101 µM	185 to 187 °C	Cc1cccc(NC(=O)CSc2nc3ccccc3cc2/C=N/NC(N)=S)c1C [Compound 10d, (E)-2-((3-((2-carbamothioylhydrazono)methyl)quinolin-2-yl)thio)-N-(2,3-dimethylphenyl)acetamide]	–	87.52 ± 0.65%	79.12 ± 0.62%	71.4 ± 2.97%	–	–	–	–	–
47.4 µM	191 to 193 °C	COc1ccc(NC(=O)CSc2nc3ccccc3cc2/C=N/NC(N)=S)cc1 [Compound 10e, (E)-2-((3-((2-carbamothioylhydrazineylidene)methyl)quinolin-2-yl)thio)-N-(4-methoxyphenyl)acetamide]	–	85.6 ± 1.08%	71.2 ± 3.86%	62 ± 4.15%	–	–	–	–	–
–	–	COc1cccc2c1C(=O)c1c(O)c3c(c(O)c1C2=O)C[C@@](O)(C(=O)CO)C[C@@H]3O[C@H]1C[C@H](N)[C@H](O)[C@H](C)O1 [Doxorubicin, reference compound]	–	–	–	–	–	–	–	–	1.3 µM
169 µM	188 to 190 °C	NC(=S)N/N=C/c1cc2ccccc2nc1SCC(=O)Nc1ccc(Cl)cc1Cl [Compound 10h, (E)-2-((3-((2-carbamothioylhydrazono)methyl)quinolin-2-yl)thio)-N-(2,4-dichlorophenyl)acetamide]	–	96.9 ± 1.59%	78.7 ± 2.19%	67.9 ± 3.21%	–	–	–	–	–
≥ 200 µM	180 to 185 °C	Cc1ccc(NC(=O)CSc2nc3ccccc3cc2/C=N/NC(N)=S)cc1 [Compound 10b, (E)-2-((3-((2-carbamothioylhydrazono)methyl)quinolin-2-yl)thio)-N-(p-tolyl)acetamide]	–	96.2 ± 2.58%	81.5 ± 2.91%	–	–	–	–	–	–

Compound	IC50 [1]	melting point	IC50 (mushroom tyrosinase; tyrosinase)	viability at 48 h, 16 µM [2]	viability at 48 h, 32 µM [2]	viability at 48 h, 64 µM [2]	Cell viability (%) (HEK 293 cell line)	IC50 (mushroom tyrosinase; L-Dopa as substrate)	IC50 (mushroom tyrosinase; L-tyrosine as substrate)	fold improvement in the potency compared to 10a ([1]; ratio of tyrosinase IC50 values)	IC50 (HEK 293 cell line; Homo sapiens, HEK293, HEK 293, MTT, read-out: IC50 (positive control))
NC(=S)N/N=C/c1cc2ccccc2nc1SCC(=O)NCc1ccccc1 [Compound 10k, (E)-N-benzyl-2-((3-((2-carbamothioylhydrazono)methyl)quinolin-2-yl)thio)acetamide]	62 µM	183 to 185 °C	–	77.3 ± 2.55%	65.4 ± 3.49%	51.1 ± 1.06%	–	–	–	around 2.5 fold	–
